Measured values from PMC7224190, “Pharmacological inhibition of PRMT7 links arginine monomethylation to the cellular stress response” (Nature Communications, 2020).

Legend:
Experiment in all cases: biochemical
Set-up in all cases: radiometric methyltransferase selectivity assay with tritiated SAM, per cent activity
Conditions in all cases: read-out: % of control remaining
[1] = biological target: DNMT1 (Homo sapiens, UniProt P26358)
Experimental: (§1) The methyltransferase selectivity was assessed at two compound concentrations of 1 and 10 μM by radiometric assays using tritiated-SAM. For methyltransferases: MLL1, MLL3, EZH1 (PRC2), and EZH2 (PRC2), G9a, GLP, SUV39H1, SUV39H2, SUV420H1, SUV420H2, SETD2, SETD8, SETDB1, SETD7, PRMT1, PRMT3, PRMT4, PRMT5/ MEP50 complex, PRMT6, PRMT7, PRMT8, PRMT9, PRDM9, SMYD2, SMYD3, DNMT1, and BCDIN3D the incorporation of a tritium-labeled methyl group into biotinylated substrate was monitored using scintillation proximity assay (SPA). Briefly, a 10 μL reaction containing ^3H-SAM and substrate at concentrations close to the apparent Km values for each enzyme (balanced conditions) was prepared. The reactions were quenched with 10 μL of 7.5 M guanidine hydrochloride; 180 μL of 20 mM Tris buffer (pH 8.0) were added, and the mixture was transferred to a 96-well FlashPlate and incubated for 1 h. The counts per minute (CPM) was measured on a TopCount plate reader. The CPM in the absence of compound or enzyme was defined as 100% activity and background (0%), respectively, for each dataset[74]–[76]. Selectivity of SGC8158 against 342 kinases was evaluated in a kinase panel TR-FRET assay at 1 and 0.1 μM compound in duplicates as described before. Briefly, tagged kinases were incubated with compound and staurosporine-based fluorescent probe where the binding was detected using Tb conjugated anti-tag antibody energy transfer to the probe. Excitation wavelength was 337 nm and fluorescent emission signal was measured for Tb (486 nm) and fluorescent probe (BODIPY, 515 nm). Specific and non-specific binding was determined in the absence and presence of unlabeled staurosporine.

[2] = biological target: DNMT3B/3L (Homo sapiens, UniProt Q9UBC3)
Experimental: as §1

[3] = biological target: NSD1 (Homo sapiens, UniProt Q96L73)
Experimental: as §1

[4] = biological target: PRC2-EZH1 (Homo sapiens, UniProt Q92800)
Experimental: as §1

[5] = biological target: PRMT6 (Homo sapiens, UniProt Q96LA8)
Experimental: as §1

[6] = biological target: T1, SETD7 (Homo sapiens, UniProt Q8WTS6)
T1 sequence (Q8WTS6 1-366): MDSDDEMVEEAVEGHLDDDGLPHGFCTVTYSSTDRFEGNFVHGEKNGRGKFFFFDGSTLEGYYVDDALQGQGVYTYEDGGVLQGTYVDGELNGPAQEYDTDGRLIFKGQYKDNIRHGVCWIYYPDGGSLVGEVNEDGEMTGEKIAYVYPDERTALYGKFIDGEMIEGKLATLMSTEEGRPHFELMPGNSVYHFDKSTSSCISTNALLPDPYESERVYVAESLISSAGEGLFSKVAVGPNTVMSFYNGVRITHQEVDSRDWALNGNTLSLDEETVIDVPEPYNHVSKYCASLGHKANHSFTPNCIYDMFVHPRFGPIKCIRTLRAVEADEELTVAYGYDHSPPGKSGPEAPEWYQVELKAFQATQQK
Experimental: as §1

[7] = biological target: T2, SETD8 (Homo sapiens, UniProt Q9NQR1)
T2 construct: gene KMT5A
T2 sequence (Q9NQR1 1-393): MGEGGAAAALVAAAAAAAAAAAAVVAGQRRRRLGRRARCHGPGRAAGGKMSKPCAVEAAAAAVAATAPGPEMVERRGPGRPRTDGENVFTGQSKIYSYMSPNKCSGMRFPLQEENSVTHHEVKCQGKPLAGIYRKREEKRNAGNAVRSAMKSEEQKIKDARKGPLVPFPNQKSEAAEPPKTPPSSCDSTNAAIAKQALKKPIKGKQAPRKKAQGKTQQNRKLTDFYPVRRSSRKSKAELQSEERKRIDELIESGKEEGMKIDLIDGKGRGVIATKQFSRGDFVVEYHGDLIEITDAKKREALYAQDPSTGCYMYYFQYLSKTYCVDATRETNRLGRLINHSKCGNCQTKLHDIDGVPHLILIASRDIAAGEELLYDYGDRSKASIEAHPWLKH
Experimental: as §1

[8] = biological target: SETDB1 (Homo sapiens, UniProt Q15047)
Experimental: as §1

[9] = biological target: T3, SUV420H1 (Homo sapiens, UniProt Q4FZB7)
T3 construct: gene KMT5B
Experimental: as §1

[10] = biological target: T4, SUV420H2 (Homo sapiens, UniProt Q86Y97)
T4 construct: gene KMT5C
Experimental: as §1

T3 sequence (Q4FZB7 whole entry): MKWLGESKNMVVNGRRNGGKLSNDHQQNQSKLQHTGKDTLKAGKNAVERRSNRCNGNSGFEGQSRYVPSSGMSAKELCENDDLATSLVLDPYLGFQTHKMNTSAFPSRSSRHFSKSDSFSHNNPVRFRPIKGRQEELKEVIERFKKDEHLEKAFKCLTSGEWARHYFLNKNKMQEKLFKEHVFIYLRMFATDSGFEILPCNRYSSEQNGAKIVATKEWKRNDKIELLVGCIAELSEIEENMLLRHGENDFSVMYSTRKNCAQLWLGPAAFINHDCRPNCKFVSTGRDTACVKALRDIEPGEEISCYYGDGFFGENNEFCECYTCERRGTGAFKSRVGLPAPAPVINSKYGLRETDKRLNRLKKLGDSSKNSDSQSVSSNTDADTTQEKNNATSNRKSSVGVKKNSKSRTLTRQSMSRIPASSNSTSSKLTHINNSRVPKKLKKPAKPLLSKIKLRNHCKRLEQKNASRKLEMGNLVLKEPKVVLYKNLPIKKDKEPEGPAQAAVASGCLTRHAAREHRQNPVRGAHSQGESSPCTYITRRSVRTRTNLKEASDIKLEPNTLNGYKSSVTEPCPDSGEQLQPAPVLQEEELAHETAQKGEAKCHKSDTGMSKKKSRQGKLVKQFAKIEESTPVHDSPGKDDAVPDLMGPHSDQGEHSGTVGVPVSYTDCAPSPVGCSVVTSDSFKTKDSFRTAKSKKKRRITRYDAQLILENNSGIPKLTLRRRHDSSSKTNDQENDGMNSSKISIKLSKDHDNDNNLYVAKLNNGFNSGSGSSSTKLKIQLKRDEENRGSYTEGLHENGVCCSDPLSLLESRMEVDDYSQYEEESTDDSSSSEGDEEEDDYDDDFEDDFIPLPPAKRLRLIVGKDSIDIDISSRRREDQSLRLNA
Sequence of PRC2-EZH1 (Q92800 whole entry): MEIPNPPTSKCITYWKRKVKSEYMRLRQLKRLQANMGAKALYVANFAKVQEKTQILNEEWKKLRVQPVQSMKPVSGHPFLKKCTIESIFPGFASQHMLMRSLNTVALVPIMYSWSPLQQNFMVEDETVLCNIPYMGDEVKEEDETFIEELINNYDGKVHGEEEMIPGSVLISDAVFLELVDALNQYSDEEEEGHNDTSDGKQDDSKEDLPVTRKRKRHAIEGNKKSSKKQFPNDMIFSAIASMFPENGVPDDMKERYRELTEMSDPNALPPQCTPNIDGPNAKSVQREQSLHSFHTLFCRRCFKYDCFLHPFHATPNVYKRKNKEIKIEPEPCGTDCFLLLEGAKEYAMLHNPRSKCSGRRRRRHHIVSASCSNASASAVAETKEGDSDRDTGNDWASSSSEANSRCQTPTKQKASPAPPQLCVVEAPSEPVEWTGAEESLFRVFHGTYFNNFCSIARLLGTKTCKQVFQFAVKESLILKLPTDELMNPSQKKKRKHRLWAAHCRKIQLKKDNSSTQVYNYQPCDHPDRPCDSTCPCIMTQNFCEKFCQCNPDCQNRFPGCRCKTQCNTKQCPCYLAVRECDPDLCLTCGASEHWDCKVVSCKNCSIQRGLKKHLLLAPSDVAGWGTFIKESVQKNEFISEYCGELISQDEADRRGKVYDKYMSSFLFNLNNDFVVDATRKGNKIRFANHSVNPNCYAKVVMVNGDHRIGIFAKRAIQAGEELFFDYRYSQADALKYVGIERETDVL
Sequence of PRC2-EZH1 (O75530 whole entry partner): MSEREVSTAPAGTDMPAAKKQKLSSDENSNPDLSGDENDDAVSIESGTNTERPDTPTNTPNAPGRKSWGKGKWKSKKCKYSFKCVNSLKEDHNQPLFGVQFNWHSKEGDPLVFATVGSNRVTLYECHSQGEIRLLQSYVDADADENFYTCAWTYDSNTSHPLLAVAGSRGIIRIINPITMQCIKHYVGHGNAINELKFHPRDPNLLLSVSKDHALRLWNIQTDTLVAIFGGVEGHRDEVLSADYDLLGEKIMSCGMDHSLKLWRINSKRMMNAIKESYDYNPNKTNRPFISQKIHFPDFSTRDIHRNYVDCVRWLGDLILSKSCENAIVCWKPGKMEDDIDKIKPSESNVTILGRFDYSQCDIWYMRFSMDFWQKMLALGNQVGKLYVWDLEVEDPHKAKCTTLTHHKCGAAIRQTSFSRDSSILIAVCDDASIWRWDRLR
Sequence of PRC2-EZH1 (Q15022 whole entry partner): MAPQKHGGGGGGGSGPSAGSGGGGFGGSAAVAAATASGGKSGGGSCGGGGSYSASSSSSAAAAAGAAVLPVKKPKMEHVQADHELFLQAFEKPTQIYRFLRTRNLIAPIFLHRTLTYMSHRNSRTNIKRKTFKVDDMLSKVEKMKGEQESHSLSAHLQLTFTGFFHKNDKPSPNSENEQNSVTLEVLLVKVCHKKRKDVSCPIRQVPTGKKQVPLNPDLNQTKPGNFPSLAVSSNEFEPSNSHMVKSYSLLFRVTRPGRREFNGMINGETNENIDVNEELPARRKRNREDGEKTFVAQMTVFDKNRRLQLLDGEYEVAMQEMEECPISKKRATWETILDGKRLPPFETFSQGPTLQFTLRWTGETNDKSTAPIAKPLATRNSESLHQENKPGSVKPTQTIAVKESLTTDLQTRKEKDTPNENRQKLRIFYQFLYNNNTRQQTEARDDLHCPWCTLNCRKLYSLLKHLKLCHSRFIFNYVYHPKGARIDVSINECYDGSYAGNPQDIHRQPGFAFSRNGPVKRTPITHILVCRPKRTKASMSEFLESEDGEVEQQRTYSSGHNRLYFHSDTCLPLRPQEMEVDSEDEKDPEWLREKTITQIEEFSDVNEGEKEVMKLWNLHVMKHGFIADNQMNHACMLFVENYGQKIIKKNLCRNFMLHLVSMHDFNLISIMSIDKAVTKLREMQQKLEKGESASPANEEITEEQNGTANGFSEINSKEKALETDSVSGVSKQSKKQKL
Sequence of PRMT6 (Q96LA8 whole entry): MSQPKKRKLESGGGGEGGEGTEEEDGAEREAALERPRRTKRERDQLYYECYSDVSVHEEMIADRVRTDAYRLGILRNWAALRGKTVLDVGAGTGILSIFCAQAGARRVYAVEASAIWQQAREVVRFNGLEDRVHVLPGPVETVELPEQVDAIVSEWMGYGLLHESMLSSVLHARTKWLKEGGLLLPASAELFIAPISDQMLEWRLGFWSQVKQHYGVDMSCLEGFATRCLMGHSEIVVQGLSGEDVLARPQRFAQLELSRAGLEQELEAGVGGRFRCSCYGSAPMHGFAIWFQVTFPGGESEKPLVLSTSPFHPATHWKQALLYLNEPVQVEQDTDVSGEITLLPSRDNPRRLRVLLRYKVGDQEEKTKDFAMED
T4 sequence (Q86Y97 whole entry): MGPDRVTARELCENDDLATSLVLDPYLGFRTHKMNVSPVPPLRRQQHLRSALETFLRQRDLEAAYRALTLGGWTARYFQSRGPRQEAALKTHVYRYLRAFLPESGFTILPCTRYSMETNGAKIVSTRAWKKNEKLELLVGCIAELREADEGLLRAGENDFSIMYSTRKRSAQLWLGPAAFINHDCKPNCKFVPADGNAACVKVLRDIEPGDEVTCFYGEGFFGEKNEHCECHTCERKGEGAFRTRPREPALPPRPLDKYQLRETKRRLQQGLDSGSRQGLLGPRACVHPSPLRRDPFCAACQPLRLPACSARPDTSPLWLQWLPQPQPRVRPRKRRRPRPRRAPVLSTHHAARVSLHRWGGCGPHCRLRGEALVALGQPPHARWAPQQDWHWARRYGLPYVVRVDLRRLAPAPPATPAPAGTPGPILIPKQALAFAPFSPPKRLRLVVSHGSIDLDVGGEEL

| SMILES | remaining activity at 1 µM [1] | remaining activity at 10 µM [1] | remaining activity at 1 µM [2] | remaining activity at 10 µM [2] | remaining activity at 1 µM [3] | remaining activity at 10 µM [3] | remaining activity at 1 µM [4] | remaining activity at 10 µM [4] | remaining activity at 1 µM [5] | remaining activity at 10 µM [5] | remaining activity at 1 µM [6] | remaining activity at 10 µM [6] | remaining activity at 1 µM [7] | remaining activity at 10 µM [7] | remaining activity at 1 µM [8] | remaining activity at 10 µM [8] | remaining activity at 1 µM [9] | remaining activity at 10 µM [9] | remaining activity at 1 µM [10] | remaining activity at 10 µM [10] |
| --- | --- | --- | --- | --- | --- | --- | --- | --- | --- | --- | --- | --- | --- | --- | --- | --- | --- | --- | --- | --- |
| Nc1ncnc2c1ncn2[C@@H]1O[C@H](CSCCCCNCc2cccc(-c3ccc(Cl)cc3)c2)[C@@H](O)[C@H]1O [SGC8158] | 98% | 91% | 100% | 101% | 104% | 99% | 106% | 100% | 100% | 58% | 100% | 100% | 101% | 102% | 103% | 99% | 96% | 87% | 98% | 87% |
| CC1(C)O[C@@H]2[C@H](O1)[C@@H](CSCCCCNCc1cccc(-c3ccc(Cl)cc3)c1)O[C@H]2n1cnc2c(N)ncnc21 [SGC8158N] | 94% | 99% | 104% | 103% | 99% | 98% | 92% | 93% | 94% | 87% | 96% | 89% | 99% | 100% | 99% | 91% | 99% | 102% | 102% | 101% |
